Key:
VPS29 = biological target: T1, VPS29 (Homo sapiens, UniProt Q9UBQ0); assay: MST binding to Cy5-labeled VPS29
T1 construct: 6xHis (pET28a, Ni column purification); made in house; host or cells: E. coli BL21(DE3)
Description: (§1) SEPHS2-2xV5, VPS37C-2xV5, VPS29, TRAPPC3, TOM1, and TOM1L2 were labeled using Cy5-NHS ester (A100932, Sangon Biotech, China). Briefly, each target protein was diluted to 10 µM in PBS and underwent buffer exchange with PBS using a Zeba spin desalting column (89882, Thermo Scientific, USA) to remove Tris. The labeling reaction consisted of 80 µl of 10 µM target protein, 10 µl of 1 M NaHCO3 pH 8.3, and 10 µl of 1 mM Cy5-NHS ester in DMSO, and was incubated at 4°C overnight. The next day, unlabeled dyes were removed using Zeba spin desalting columns, and labeling efficiency was assessed by measuring the concentration of Cy5 with a UV-Vis spectrophotometer (SMA5000, Merinton, China). […] Cy5-labeled SEPHS2-2xV5 (5 nM), VPS37C-2xV5 (5 nM), VPS29 (10 nM), TRAPPC3 (10 nM), TOM1 (10 nM), or TOM1L2 (10 nM) was mixed with the corresponding diluted compound in a total volume of 20 µl, and then loaded into Monolith premium capillaries (MO-K025, NanoTemper, Germany). Binding affinity analysis was performed using a NanoTemper Monolith NT.115 instrument (NanoTemper). Kd values were obtained using MO.Affinity Analysis 2.3.0 software (NanoTemper).

TOM1L2 = biological target: T2, TOM1L2 (Homo sapiens, UniProt Q6ZVM7); assay: MST binding to Cy5-labeled TOM1L2; settings: n = 2
T2 construct: 6xHis (pET28a, Ni column purification); made in house; host or cells: E. coli BL21(DE3)
T2 sequence (Q6ZVM7 1-507): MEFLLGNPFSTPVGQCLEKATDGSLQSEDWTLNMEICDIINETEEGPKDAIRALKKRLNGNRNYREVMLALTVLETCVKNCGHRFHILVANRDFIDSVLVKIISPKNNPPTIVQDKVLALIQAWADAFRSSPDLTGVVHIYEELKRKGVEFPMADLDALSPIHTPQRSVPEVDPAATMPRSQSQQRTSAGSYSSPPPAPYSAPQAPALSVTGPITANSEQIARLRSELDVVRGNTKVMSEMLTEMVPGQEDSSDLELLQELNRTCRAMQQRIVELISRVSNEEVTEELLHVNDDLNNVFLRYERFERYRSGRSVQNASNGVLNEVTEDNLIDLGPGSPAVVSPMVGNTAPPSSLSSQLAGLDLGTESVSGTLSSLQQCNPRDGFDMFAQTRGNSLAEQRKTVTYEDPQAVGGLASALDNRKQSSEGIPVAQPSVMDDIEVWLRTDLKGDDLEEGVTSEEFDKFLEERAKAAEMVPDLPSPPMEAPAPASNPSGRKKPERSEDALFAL
Description: as §1

TRAPPC3 = biological target: T3, TRAPPC3 (Homo sapiens, UniProt O43617); assay: MST binding to Cy5-labeled TRAPPC3; settings: n = 2
T3 construct: 6xHis (pET28a, Ni column purification); made in house; host or cells: E. coli BL21(DE3)
Description: as §1

LC3-II [1] = assay: Autophagy inhibition by LC3-II western blot in A375 cells; assay type: cell-based, Homo sapiens; settings: 12 hr
Text: (§2) Cells transfected and/or treated with different compounds were harvested at the end of treatment.

TOM1 = biological target: T4, TOM1 (Homo sapiens, UniProt O60784); assay: MST binding to Cy5-labeled TOM1; settings: n = 2
T4 construct: 6xHis (pET28a, Ni column purification); made in house; host or cells: E. coli BL21(DE3)
Description: as §1

VPS37C [2] = biological target: T5, VPS37C (Homo sapiens, UniProt A5D8V6); assay: Cellular thermal shift assay (CETSA) on cell lysates; assay type: binding; settings: 20 µM compound, 47°C to 59°C
T5 construct: expressed in transfected cells; host or cells: HEK293T
Description: […] cells were cultured on a 100 mm dish and transfected with 10 µg of VPS37C-2xV5 plasmid. Forty-eight hours later, the cells were washed twice with ice-cold PBS, harvested in 1 ml of PBS buffer supplemented with 0.4% NP-40 and 0.5×protease inhibitor cocktail, incubated for 15 min with gently rotation at room temperature, and centrifuged at maximum speed for 15 min at 4°C. The supernatant was transferred to a new 1.5 ml microtube, and protein concentration was determined by a BCA assay. Cell lysates were diluted to a concentration of 2 mg/ml and divided into two groups. The drug group was treated with 20 µM of DC660 or HCQ, while the control group received the same amount of DMSO. After a 20 min incubation at room temperature, cell lysates were gently mixed and aliquoted into PCR tubes with 40 µl each, then subjected to heat treatment for 4 min, ranging from 47°C to 59°C in 2°C increments, and cooled to room temperature on a T100 thermal cycler (Bio-Rad, USA). Subsequently, cell lysates were transferred to 1.5 ml microtubes and centrifuged at maximum speed for 20 min at 4°C to precipitate unstable insoluble proteins. The supernatant was transferred to a new 1.5 ml microtube, and 10 µl of 5×SDS sample buffer was added to each tube. Samples were boiled at 95°C for 5 min and processed for western blot analysis.

LC3-II [3] = assay: Autophagy inhibition by LC3-II western blot in HEK293T cells; assay type: cell-based, Homo sapiens; settings: 12 hr
Text: as §2

VPS37C [4] = biological target: T5, VPS37C; assay: MST binding to Cy5-labeled VPS37C; settings: purified recombinant VPS37C; n = 2, mean ± s.d.
Description: as §1

VPS37C-V5 = biological target: T6, VPS37C-V5 (Homo sapiens, UniProt A5D8V6); assay: POST-IT labeling and streptavidin pulldown of VPS37C-V5 in HEK293T cells; assay type: cell-based; settings: 200 nM DC661-H1 with 2 µM competitor
T6 construct: expressed in transfected cells; host or cells: HEK293T

SRC(247-536)-2xV5 = SRC(247-536)-2xV5 (Homo sapiens, UniProt P12931); settings: 500 nM DH1, N-terminal Halo^8KR, 37°C, 30 min
Myc-Halo^8KR-PafA = biological target: T7, Myc-Halo^8KR-PafA (Rhodococcus rhodochrous, UniProt P0A3G2, A155T/A167V/A172T/A224E/C128F/C176G/D78G/E160R/E257R/H272N/K117R/K124R/K175M/K195N/K236R/K263R/K71R/K74R/L47V/L88M/N227D/P291S/S58T/T264A/Y273L/Y87F); assay: Halo-biotin competition assay (western blot, streptavidin-HRP); assay type: binding, Corynebacterium glutamicum; settings: 2 μM DH1 preincubation, 1 μM Myc-Halo^8KR-PafA, then 5 μM Halo-Biotin
T7 construct: 6xHis (Ni column purification); made in house; host or cells: E. coli BL21(DE3)
Description: Figure 2. Optimized Halo-PafA and Pup substrates efficiently promote pupylation in vitro in a proximity-dependent manner. […] (B) Comparison of proximity-tagging by different Halo-PafA derivatives on in vitro pupylation. (C) Comparison of different Pup substrates on in vitro pupylation with 500 nM DH1. […] (B–D) All reactions were conducted with 1 μM of a Halo-PafA derivative, 10 μM of one of the different Pup substrates, and 0.5 μM of a purified short SRC with a 2xV5 tag, SRC(247-536)-2xV5, at 37°C for 30 min. Pupylation levels of SRC were assessed by immunoblot (IB) using an anti-V5 antibody. Figure 2—source data 1. […] Figure 2—source data 2. […] Figure 2—figure supplement 1. Synthesis of dasatinib-Halo derivative 1 (DH1). Reagents and conditions: (a) HATU, DIPEA, DMF, RT, 2 hr; (b) NaOH, THF, H2O, RT, 2 hr. RT, room temperature. [drawing 4] Figure 2—figure supplement 2. Representative spectra of DH1. (A) ^1H NMR; (B) HRMS. [drawing 5] Figure 2—figure supplement 3. […] (A) Fluorescence polarization (FP) assay using 2 nM of HaloTag Alexa Fluor-488 (Halo-AF488) at 25°C. n = 2. […] (B) Western blot analysis for the Halo-Biotin competition assay. […] Levels of bound Halo-Biotin were assessed by streptavidin-HRP. (C) Quantitative analysis of western blot results shown in (B). n = 5. […] Pupylation levels of SRC were assessed by immunoblot (IB) using an anti-V5 antibody. […]

SRC = assay: In cellulo pupylation and pulldown assay of SRC in HEK293T cells; assay type: cell-based, Homo sapiens; settings: 500 nM DH1
HA-FKBP-EGFP = HA-FKBP-EGFP (Homo sapiens, UniProt P42345+P62942); assay: Rapamycin-induced pupylation of FKBP-EGFP by FRB-mKate2-PafA in HEK293T cells; assay type: cell-based; settings: 100 nM rapamycin
Chain of HA-FKBP-EGFP (P62942 whole entry): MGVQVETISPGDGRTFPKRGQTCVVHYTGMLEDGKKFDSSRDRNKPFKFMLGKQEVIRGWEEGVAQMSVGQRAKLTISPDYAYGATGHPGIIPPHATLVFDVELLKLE
Chain of HA-FKBP-EGFP (P42345 2012-2144 limits assumed): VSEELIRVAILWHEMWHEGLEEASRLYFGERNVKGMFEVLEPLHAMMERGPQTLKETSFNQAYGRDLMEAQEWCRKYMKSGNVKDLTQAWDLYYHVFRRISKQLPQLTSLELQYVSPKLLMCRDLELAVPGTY

T5 sequence (A5D8V6 whole entry): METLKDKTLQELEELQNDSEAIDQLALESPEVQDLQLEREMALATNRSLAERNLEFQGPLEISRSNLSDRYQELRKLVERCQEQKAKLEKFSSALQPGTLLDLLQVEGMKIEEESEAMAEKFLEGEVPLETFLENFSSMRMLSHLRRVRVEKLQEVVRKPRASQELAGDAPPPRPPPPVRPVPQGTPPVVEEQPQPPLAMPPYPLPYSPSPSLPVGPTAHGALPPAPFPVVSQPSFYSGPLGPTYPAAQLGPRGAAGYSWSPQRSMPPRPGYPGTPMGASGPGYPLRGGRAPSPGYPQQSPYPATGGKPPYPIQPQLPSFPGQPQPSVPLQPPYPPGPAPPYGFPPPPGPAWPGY
T3 sequence (O43617 whole entry): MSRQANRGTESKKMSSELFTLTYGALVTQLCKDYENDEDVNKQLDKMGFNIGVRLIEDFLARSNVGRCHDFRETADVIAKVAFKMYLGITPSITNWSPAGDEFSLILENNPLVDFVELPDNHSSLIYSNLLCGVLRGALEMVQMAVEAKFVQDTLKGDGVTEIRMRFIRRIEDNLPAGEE
T6 sequence (A5D8V6 whole entry): as the sequence (A5D8V6 whole entry) above
T4 sequence (O60784 whole entry): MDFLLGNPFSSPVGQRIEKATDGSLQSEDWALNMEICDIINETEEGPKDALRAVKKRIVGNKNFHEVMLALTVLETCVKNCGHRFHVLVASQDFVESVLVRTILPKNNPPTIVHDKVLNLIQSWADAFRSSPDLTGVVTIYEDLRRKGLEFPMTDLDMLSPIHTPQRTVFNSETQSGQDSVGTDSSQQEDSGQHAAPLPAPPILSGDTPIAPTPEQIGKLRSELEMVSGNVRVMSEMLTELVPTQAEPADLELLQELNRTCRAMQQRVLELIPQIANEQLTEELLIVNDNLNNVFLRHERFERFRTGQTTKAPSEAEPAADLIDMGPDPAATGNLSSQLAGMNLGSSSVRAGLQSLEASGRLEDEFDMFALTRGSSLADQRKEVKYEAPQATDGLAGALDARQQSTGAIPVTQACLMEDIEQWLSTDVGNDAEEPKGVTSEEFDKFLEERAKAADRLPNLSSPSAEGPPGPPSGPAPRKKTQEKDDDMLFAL
Chain of SRC(247-536)-2xV5 (P12931 247-536): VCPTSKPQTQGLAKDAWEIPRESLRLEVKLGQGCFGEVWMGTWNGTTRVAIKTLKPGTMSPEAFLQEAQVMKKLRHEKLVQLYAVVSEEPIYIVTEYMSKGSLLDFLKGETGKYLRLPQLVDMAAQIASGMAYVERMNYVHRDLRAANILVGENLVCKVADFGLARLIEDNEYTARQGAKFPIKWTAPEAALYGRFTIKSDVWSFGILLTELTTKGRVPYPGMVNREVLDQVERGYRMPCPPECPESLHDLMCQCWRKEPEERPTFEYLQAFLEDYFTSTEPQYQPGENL
T7 sequence (P0A3G2 other isoform, or with tags, fused parts or gaps with the stated changes): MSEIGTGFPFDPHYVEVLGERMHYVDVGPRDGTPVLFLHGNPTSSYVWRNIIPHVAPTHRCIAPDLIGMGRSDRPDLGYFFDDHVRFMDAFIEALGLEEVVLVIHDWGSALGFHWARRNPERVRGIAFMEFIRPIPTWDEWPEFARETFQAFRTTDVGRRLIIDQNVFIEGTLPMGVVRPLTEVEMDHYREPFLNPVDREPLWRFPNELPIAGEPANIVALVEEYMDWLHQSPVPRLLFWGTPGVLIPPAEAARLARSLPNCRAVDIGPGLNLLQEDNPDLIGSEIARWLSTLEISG

Structure (SMILES) | Kd (VPS29; n = 2, mean ± s.d.) [µM] | binding to TOM1L2 (MST) (TOM1L2) | binding to TRAPPC3 (MST) (TRAPPC3) | levels of LC3-II band (autophagy inhibition) (LC3-II [1]) | binding to TOM1 (MST) (TOM1) | thermal stability of VPS37C versus DMSO (CETSA) (VPS37C [2]) | levels of LC3-II band (autophagy inhibition) (LC3-II [3]) | Kd (VPS37C [4]) [µM] | VPS37C binding to DC661-H1 under competition (VPS37C-V5) | pupylation of purified recombinant short SRC by Halo^8KR-PafA (SRC(247-536)-2xV5) | time for efficient linking to Halo^8KR-PafA (Myc-Halo^8KR-PafA) [min] | POST-IT labeling of exogenous and endogenous SRC (SRC) | binding to VPS29 (MST dose-response) (VPS29; n = 2) | pupylation of FKBP-EGFP by PafA fused with FRB (HA-FKBP-EGFP)
Clc1ccc2c(NCCCCCCNCCCCCCNc3ccnc4cc(Cl)ccc34)ccnc2c1 [DC660, N^1-(7-Chloroquinolin-4-yl)-N^6-(6-((7-chloroquinolin-4-yl)amino)hexyl)hexane-1,6-diamine] | 25 ± 11.7 | appeared to bind well | appeared to bind well | robust LC3-II bands | appeared to bind well | more stable | robust LC3-II bands | 0.0215 ± 0.0098 | almost completely abolished | – | – | – | – | –
Cc1nc(Nc2ncc(C(=O)Nc3c(C)cccc3Cl)s2)cc(N2CCN(CCNC(=O)CCCCC(=O)NCCOCCOCCOCCOCCCCCCCl)CC2)n1 [DH1, N1-(2-(4-(6-((5-((2-Chloro-6-methylphenyl)carbamoyl)thiazol-2-yl)amino)-2-methylpyrimidin-4-yl)piperazin-1-yl)ethyl)-N6-(18-chloro-3,6,9,12-tetraoxaoctadecyl)adipamide] | – | – | – | – | – | – | – | – | – | robust pupylation | ≤ 15 | significant labeling activity | – | –
CCN(CCO)CCCC(C)Nc1ccnc2cc(Cl)ccc12 (centres unmarked) [HCQ, hydroxychloroquine, reference compound] | – | did not show detectable binding | did not show detectable binding | – | did not show detectable binding | more stable | – | 16.9 ± 8.7 | almost completely abolished | – | – | – | no binding | –
CO[C@H]1C[C@@H]2CC[C@@H](C)[C@@](O)(O2)C(=O)C(=O)N2CCCC[C@H]2C(=O)O[C@H]([C@H](C)C[C@@H]2CC[C@@H](O)[C@H](OC)C2)CC(=O)[C@H](C)/C=C(\C)[C@@H](O)[C@@H](OC)C(=O)[C@H](C)C[C@H](C)/C=C/C=C/C=C/1C [rapamycin] | – | – | – | – | – | – | – | – | – | – | – | – | – | robust pupylation

Source: publication PMC11677243, “Target protein identification in live cells and organisms with a non-diffusive proximity tagging system” (eLife, 2024)
